Experimental findings from PubChem BioAssay (NCI) are described below.

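Cells were grown in 96-well plates and exposed to each compound for 48 hours at five concentrations; endpoints were interpolated linearly between bracketing concentrations, or set to the highest concentration if not reached. Abbreviation: GI50, concentration required for 50% inhibition of growth. At the TGI there is no net growth.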

Among the test systems are HCT-15 colon; MOLT-4 leukemia; SK-MEL-5 melanoma; LOX IMVI melanoma; OVCAR-3 ovarian; SF-295 CNS; HL-60(TB) leukemia; SK-MEL-28 melanoma; U251 CNS; OVCAR-5 ovarian.
What all share (assay): growth of human tumour cells (NCI), 48 h

On to `O=C1COCCN1c1ccc(NCc2cn(Cc3ccc(F)cc3)c3ccccc23)cc1`, for which the GI50 in the experiment on HCT-15 colon is 4.13 µM; in the experiment with MOLT-4 leukemia, 11.6 µM; in the experiment with SK-MEL-5 melanoma, 2.6 µM; in the experiment with LOX IMVI melanoma it was 5.32 µM; in the experiment with OVCAR-3 ovarian, 0.313 µM; in the experiment on SF-295 CNS, 0.927 µM. The GI50 with HL-60(TB) leukemia is 4.8 µM; in the experiment with SK-MEL-28 melanoma, 15.4 µM; in the experiment on U251 CNS, 0.645 µM; in the experiment on OVCAR-5 ovarian, 0.0418 µM. Moreover, the TGI in the experiment with HCT-15 colon was 31 µM; with MOLT-4 leukemia it was above 68.9 µM; with SK-MEL-5 melanoma, 11.2 µM; with LOX IMVI melanoma, 25.3 µM; in the experiment with OVCAR-3 ovarian, 2.96 µM; with SF-295 CNS, 27.5 µM. Further, the TGI in the experiment with HL-60(TB) leukemia came out at 24.3 µM; in the experiment with SK-MEL-28 melanoma, 77.9 µM; in the experiment with U251 CNS, 38.5 µM; in the experiment on OVCAR-5 ovarian it was 0.231 µM.

In the case of `NC(CSC(c1ccccc1)(c1ccccc1)c1ccc(Br)cc1)C(=O)O` (stereo not given), the GI50 in the experiment on HCT-15 colon is 0.258 µM; with MOLT-4 leukemia, 0.651 µM; with SK-MEL-5 melanoma, 0.0721 µM; with LOX IMVI melanoma it was 0.659 µM; in the experiment on OVCAR-3 ovarian, 0.0942 µM; with SF-295 CNS, 0.0764 µM. The GI50 in the experiment on HL-60(TB) leukemia was 0.412 µM; in the experiment with SK-MEL-28 melanoma it was 0.366 µM; in the experiment with U251 CNS, 0.0798 µM; with OVCAR-5 ovarian it was 5.13 µM. Also, the TGI is above 82 µM in the experiment on HCT-15 colon; above 82.1 µM in the experiment on MOLT-4 leukemia; 12.2 µM with SK-MEL-5 melanoma; 19.8 µM with LOX IMVI melanoma; 0.412 µM with OVCAR-3 ovarian; above 100 µM in the experiment on SF-295 CNS. Also, the TGI was 75.3 µM in the experiment with HL-60(TB) leukemia, 31.7 µM in the experiment with SK-MEL-28 melanoma, 25.5 µM in the experiment with U251 CNS and above 100 µM in the experiment with OVCAR-5 ovarian.

Consider `O=P1(NCCCl)OCCC(OO)N1CCCl` (stereo not given), for which the TGI is 33.9 µM in the experiment with HCT-15 colon; above 83.4 µM in the experiment on MOLT-4 leukemia; above 100 µM with SK-MEL-5 melanoma; 37.5 µM in the experiment with LOX IMVI melanoma; 53 µM in the experiment on OVCAR-3 ovarian; above 100 µM in the experiment with SF-295 CNS. In addition, the TGI with HL-60(TB) leukemia is above 51.9 µM; in the experiment on SK-MEL-28 melanoma, 39.4 µM; in the experiment on U251 CNS it was above 100 µM; in the experiment on OVCAR-5 ovarian, above 100 µM.

For the compound `Clc1ccc2c(NCCCNCc3ccc4c(c3)OCO4)ccnc2c1`, the GI50 was 2.42 µM with HCT-15 colon; 2.68 µM with MOLT-4 leukemia; 1.74 µM in the experiment on SK-MEL-5 melanoma; 1.91 µM in the experiment with LOX IMVI melanoma; 5.14 µM with OVCAR-3 ovarian; 2.34 µM with SF-295 CNS. For the same compound, the GI50 with HL-60(TB) leukemia is 2.22 µM; in the experiment with SK-MEL-28 melanoma, 1.86 µM; in the experiment on U251 CNS it was 2.68 µM; in the experiment on OVCAR-5 ovarian, 5.41 µM. The TGI stood at 7.85 µM in the experiment with HCT-15 colon; 10.2 µM in the experiment with MOLT-4 leukemia; 3.13 µM with SK-MEL-5 melanoma; 4.41 µM in the experiment on LOX IMVI melanoma; 18.7 µM with OVCAR-3 ovarian; 7.11 µM in the experiment on SF-295 CNS. Moreover, the TGI in the experiment with HL-60(TB) leukemia came out at 4.79 µM; with SK-MEL-28 melanoma it was 3.57 µM; in the experiment with U251 CNS, 7.11 µM; in the experiment with OVCAR-5 ovarian, 18.8 µM.

In the case of `COc1cccc(/C=N/[N-]C(N)=O)c1[O-].[Cu+2].c1ccncc1`, the TGI is above 100 µM with HCT-15 colon; 69.3 µM in the experiment on MOLT-4 leukemia; 37.2 µM with SK-MEL-5 melanoma; 36.5 µM in the experiment on LOX IMVI melanoma; 28.8 µM in the experiment with OVCAR-3 ovarian; 62.4 µM with SF-295 CNS. Besides, the TGI worked out at 55.1 µM in the experiment on HL-60(TB) leukemia, 33.9 µM in the experiment on SK-MEL-28 melanoma, 32.2 µM with U251 CNS and 45.1 µM with OVCAR-5 ovarian. Besides, the GI50 with HL-60(TB) leukemia was 26.5 µM.

For the compound `COC(=O)C1=CCS(=O)(=O)C1`, the TGI in the experiment on HCT-15 colon, with MOLT-4 leukemia, in the experiment with SK-MEL-5 melanoma, in the experiment on LOX IMVI melanoma, in the experiment with OVCAR-3 ovarian and with SF-295 CNS was above 100 µM each time. Besides, the TGI with HL-60(TB) leukemia, with SK-MEL-28 melanoma and with OVCAR-5 ovarian was above 100 µM each time.

Turning to `O=c1c(Br)ccc(Br)cc1Br`, the GI50 is 0.752 µM in the experiment with HCT-15 colon; 0.41 µM with MOLT-4 leukemia; 3.19 µM in the experiment on SK-MEL-5 melanoma; 0.897 µM with LOX IMVI melanoma; 0.926 µM in the experiment on OVCAR-3 ovarian; 8.01 µM in the experiment with SF-295 CNS. The GI50 was 0.662 µM in the experiment with HL-60(TB) leukemia, 2.55 µM in the experiment with SK-MEL-28 melanoma, 1.84 µM with U251 CNS and 1.76 µM in the experiment with OVCAR-5 ovarian. Moreover, the TGI is 2.48 µM in the experiment on HCT-15 colon; 1.86 µM in the experiment with MOLT-4 leukemia; 10.9 µM with SK-MEL-5 melanoma; 2.35 µM in the experiment on LOX IMVI melanoma; 2.18 µM in the experiment on OVCAR-3 ovarian; 22.4 µM with SF-295 CNS. Also, the TGI came out at 2.67 µM in the experiment with HL-60(TB) leukemia, 5.83 µM with SK-MEL-28 melanoma, 3.34 µM in the experiment on U251 CNS and 3.46 µM with OVCAR-5 ovarian.

As to `NC1=C(O)/C(=N/NS(=O)(=O)c2ccccc2)C(c2cccc(Cl)c2)O1` (stereo not given), the TGI with HCT-15 colon is 27 µM; with MOLT-4 leukemia, 19.1 µM; in the experiment on SK-MEL-5 melanoma it was above 100 µM; in the experiment with LOX IMVI melanoma, 49.2 µM; in the experiment with OVCAR-3 ovarian, 55.5 µM; in the experiment with SF-295 CNS, above 100 µM. The TGI is 12.5 µM with HL-60(TB) leukemia, 46.2 µM in the experiment with SK-MEL-28 melanoma, 55.7 µM with U251 CNS and above 90.4 µM with OVCAR-5 ovarian.

In the case of `CC(NC(=O)C1(N)CCCC1)C(=O)O` (stereo not given), the TGI in the experiment with HCT-15 colon, in the experiment with MOLT-4 leukemia, in the experiment on SK-MEL-5 melanoma, with LOX IMVI melanoma, in the experiment with OVCAR-3 ovarian and in the experiment on SF-295 CNS was above 100 µM in each case. Also, the TGI in the experiment with HL-60(TB) leukemia, with SK-MEL-28 melanoma, in the experiment with U251 CNS and in the experiment on OVCAR-5 ovarian was above 100 µM in each case.

In the case of `COc1cc(Nc2nccc(-c3cnn4ncccc34)n2)cc(OC)c1`, the GI50 was 0.0889 µM with HCT-15 colon; 0.0516 µM with MOLT-4 leukemia; 0.151 µM in the experiment with SK-MEL-5 melanoma; 0.0539 µM in the experiment with LOX IMVI melanoma; 0.0509 µM in the experiment on OVCAR-3 ovarian; 0.0572 µM in the experiment on SF-295 CNS. For the same compound, the GI50 in the experiment on HL-60(TB) leukemia was 0.0362 µM; in the experiment on SK-MEL-28 melanoma, 0.0726 µM; in the experiment with U251 CNS, 0.075 µM; in the experiment with OVCAR-5 ovarian, 0.0759 µM. Moreover, the TGI was above 5.17 µM with HCT-15 colon; 0.165 µM in the experiment with MOLT-4 leukemia; 3.19 µM with SK-MEL-5 melanoma; above 9.54 µM in the experiment on LOX IMVI melanoma; 0.822 µM in the experiment with OVCAR-3 ovarian; 0.721 µM in the experiment with SF-295 CNS. For the same compound, the TGI was determined as 0.12 µM in the experiment on HL-60(TB) leukemia, 0.38 µM with SK-MEL-28 melanoma, 2.46 µM in the experiment with U251 CNS and 1.9 µM in the experiment with OVCAR-5 ovarian.
